The results in this text go back to PubChem BioAssay (NCI).

Test systems include MOLT-4 leukemia; TK-10 renal; SK-MEL-5 melanoma; DU-145 prostate; NCI-H522 lung; M14 melanoma; IGROV1 ovarian; HT29 colon; OVCAR-8 ovarian; SN12C renal.
What all share (test): growth of human tumour cells (NCI), 48 h

Values joined by “and” are separate entries in the source; they are usually repeats but may differ in a detail not shown here. Equal values may be shown once.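 Method: 48-hour compound exposure of cells in 96-well plates, five concentrations, linear interpolation of endpoints. Here, GI50 denotes the concentration required for 50% inhibition of growth. TGI is the concentration that stops growth completely.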

Turning to `NS(=O)(=O)c1cccc(Nc2cc(-c3ccc(F)cc3)[nH]n2)c1`, the GI50 was more than 25 µM with MOLT-4 leukemia; 20.3 µM in the assay with TK-10 renal; 24.5 µM in the assay on SK-MEL-5 melanoma; 16.2 µM in the assay on DU-145 prostate; more than 25 µM in the assay with NCI-H522 lung; more than 25 µM in the assay on M14 melanoma. The GI50 was 19.3 µM in the assay with IGROV1 ovarian, more than 25 µM in the assay with HT29 colon, 19.4 µM in the assay on OVCAR-8 ovarian and more than 20.7 µM in the assay with SN12C renal. The TGI with MOLT-4 leukemia, with TK-10 renal, in the assay with SK-MEL-5 melanoma, in the assay on DU-145 prostate, in the assay on NCI-H522 lung and with M14 melanoma was more than 25 µM throughout. Besides, the TGI in the assay on IGROV1 ovarian, in the assay with HT29 colon, in the assay on OVCAR-8 ovarian and in the assay on SN12C renal was more than 25 µM each time.

As for `CN(N=O)c1ccc(/C=C/c2ccnc3ccccc23)cc1`, the TGI in the assay with MOLT-4 leukemia, in the assay with TK-10 renal, with SK-MEL-5 melanoma, in the assay on DU-145 prostate, in the assay on NCI-H522 lung and with M14 melanoma was more than 100 µM each time. For the same molecule, the TGI with IGROV1 ovarian, with HT29 colon, in the assay with OVCAR-8 ovarian and in the assay with SN12C renal was more than 100 µM throughout.

For `CC1(C)C2CC(=O)C1(C)C(OCc1ccccc1)C2Br` (stereo not drawn), the TGI is 51.2 µM and 49.9 µM with MOLT-4 leukemia; more than 100 µM with TK-10 renal; 29.3 µM and > 100 µM in the assay with SK-MEL-5 melanoma; more than 100 µM in the assay on DU-145 prostate; 57.9 µM and > 100 µM with M14 melanoma; more than 100 µM with IGROV1 ovarian. Also, the TGI is 32.2 µM and 71.3 µM in the assay with HT29 colon; 56.8 µM and > 100 µM with OVCAR-8 ovarian; 52.9 µM and > 100 µM in the assay with SN12C renal. In addition, the GI50 with DU-145 prostate was 29.7 µM and 86.8 µM; with M14 melanoma, 23.4 µM and 54.8 µM; in the assay with OVCAR-8 ovarian, 22.7 µM and 95.7 µM; in the assay with SN12C renal it was 24.2 µM and 82.1 µM.

Consider `COc1ccc2c(c1O)[C@@]13CCCC=C1[C@@H](C2)N(C)CC3`, for which the TGI is more than 100 µM with MOLT-4 leukemia; more than 100 µM in the assay on TK-10 renal; more than 100 µM with SK-MEL-5 melanoma; more than 100 µM with DU-145 prostate; 76.2 µM in the assay on NCI-H522 lung; more than 100 µM in the assay with M14 melanoma. Also, the TGI in the assay on IGROV1 ovarian, in the assay on HT29 colon, in the assay on OVCAR-8 ovarian and in the assay with SN12C renal was more than 100 µM throughout.

For `COc1cc(/C=N\Nc2ccccc2)ccc1OC(=O)c1ccccc1`, the GI50 in the assay with MOLT-4 leukemia is 1.94 µM; in the assay with TK-10 renal, 16.5 µM; in the assay with SK-MEL-5 melanoma it was 1.53 µM; in the assay on DU-145 prostate it was 39.4 µM; in the assay on NCI-H522 lung, 1.02 µM; with M14 melanoma it was 0.677 µM. Also, the GI50 with IGROV1 ovarian is 2.76 µM; with HT29 colon, 3.72 µM; with OVCAR-8 ovarian, 3.46 µM; with SN12C renal it was 11 µM. Also, the TGI is more than 100 µM in the assay on MOLT-4 leukemia; 68.3 µM in the assay on TK-10 renal; 18.9 µM in the assay with SK-MEL-5 melanoma; more than 100 µM in the assay on DU-145 prostate; more than 76.6 µM in the assay on NCI-H522 lung; 15.8 µM in the assay with M14 melanoma. In addition, the TGI in the assay with IGROV1 ovarian was more than 100 µM; with HT29 colon, 17.7 µM; with OVCAR-8 ovarian, more than 100 µM; with SN12C renal, more than 100 µM.

For `CCCCCn1sc(=O)n(Cc2ccc(CNC(=O)C(C)c3ccc(CC(C)C)cc3)cc2)c1=O` (stereo not drawn), the GI50 with MOLT-4 leukemia is 0.848 µM; in the assay with TK-10 renal it was 0.736 µM; in the assay on SK-MEL-5 melanoma, 1.61 µM; with DU-145 prostate, 1.17 µM; in the assay with NCI-H522 lung, 0.162 µM; with M14 melanoma it was 0.631 µM. In addition, the GI50 in the assay on IGROV1 ovarian is 0.645 µM; with HT29 colon, 0.949 µM; with OVCAR-8 ovarian, 1.09 µM; with SN12C renal, 1.1 µM. The TGI with MOLT-4 leukemia was more than 22.5 µM; in the assay on TK-10 renal, 2.05 µM; in the assay with SK-MEL-5 melanoma it was 2.96 µM; in the assay with DU-145 prostate, 2.4 µM; in the assay on NCI-H522 lung, 2.11 µM; in the assay on M14 melanoma it was 1.92 µM. Further, the TGI with IGROV1 ovarian came to 2 µM; with HT29 colon, 2.55 µM; in the assay with OVCAR-8 ovarian, 2.73 µM; in the assay on SN12C renal, 2.37 µM.

For the molecule `COc1ccc(/C(=C(\c2ccccc2)[N+](=O)[O-])c2ccc(OCCN3CCCC3)cc2)cc1`, the GI50 in the assay on MOLT-4 leukemia was 2.65 µM; in the assay with TK-10 renal, 5.17 µM; in the assay on SK-MEL-5 melanoma it was 1.54 µM; in the assay on DU-145 prostate, 9.52 µM; with NCI-H522 lung, 2.46 µM; in the assay on M14 melanoma, 1.82 µM. Besides, the GI50 is 3.57 µM with IGROV1 ovarian, 0.301 µM in the assay on HT29 colon, 11.8 µM in the assay with OVCAR-8 ovarian and 7.79 µM with SN12C renal. The TGI in the assay on MOLT-4 leukemia stood at 10.5 µM; in the assay with TK-10 renal, 20.1 µM; in the assay with SK-MEL-5 melanoma, 2.92 µM; in the assay with DU-145 prostate, 21.5 µM; with NCI-H522 lung, 9.62 µM; with M14 melanoma, 3.47 µM. Moreover, the TGI in the assay on IGROV1 ovarian was determined as 17.3 µM; in the assay with HT29 colon it was 1.82 µM; in the assay with OVCAR-8 ovarian it was 31.7 µM; in the assay on SN12C renal, 22.4 µM.

Consider `CC[C@H](C)[C@H](NC(=O)CN(C)C)C(=O)N(C)[C@H](C[C@@H](OC(C)=O)c1nc(C(=O)NC23C4C5C2C2C3C4C52C(=O)OC)cs1)C(C)C` (stereo partly drawn), for which the GI50 is 0.252 µM in the assay with MOLT-4 leukemia; 9.48 µM in the assay on TK-10 renal; 0.299 µM with SK-MEL-5 melanoma; 0.176 µM in the assay with DU-145 prostate; 0.11 µM with NCI-H522 lung; 0.172 µM in the assay on M14 melanoma. For the same molecule, the GI50 in the assay on IGROV1 ovarian is 0.428 µM; in the assay on HT29 colon, 0.133 µM; in the assay with OVCAR-8 ovarian, 0.507 µM; in the assay with SN12C renal, 0.276 µM. Also, the TGI with MOLT-4 leukemia is more than 33.2 µM; in the assay on TK-10 renal, more than 33.2 µM; in the assay with SK-MEL-5 melanoma, 6.75 µM; with DU-145 prostate, more than 33.2 µM; in the assay with NCI-H522 lung, more than 10.8 µM; with M14 melanoma, more than 33.2 µM. The TGI was more than 33.2 µM with IGROV1 ovarian, more than 33.2 µM in the assay on HT29 colon, more than 33.2 µM in the assay on OVCAR-8 ovarian and more than 18.8 µM in the assay with SN12C renal.
